# Measured values taken from PubChem BioAssay (NCI).
#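 Each compound was tested at five concentrations against cells in 96-well plates for 48 hours. GI50: concentration for 50% inhibition of growth. At the TGI there is no net growth.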
# Tests used:
# Experiment in all cases: DTP human tumour cell line panel, 48 h
# HCT-15 colon = tested on: HCT-15 colon
# HL-60(TB) leukemia = tested on: HL-60(TB) leukemia
# KM12 colon = tested on: KM12 colon
# LOX IMVI melanoma = tested on: LOX IMVI melanoma
# MALME-3M melanoma = tested on: MALME-3M melanoma
# NCI-H226 lung = tested on: NCI-H226 lung
# NCI-H522 lung = tested on: NCI-H522 lung
# RPMI-8226 leukemia = tested on: RPMI-8226 leukemia
# SNB-19 CNS = tested on: SNB-19 CNS
# TK-10 renal = tested on: TK-10 renal
Compound,GI50 (HCT-15 colon) [µM],TGI (HCT-15 colon) [µM],GI50 (HL-60(TB) leukemia) [µM],TGI (HL-60(TB) leukemia) [µM],GI50 (KM12 colon) [µM],TGI (KM12 colon) [µM],GI50 (LOX IMVI melanoma) [µM],TGI (LOX IMVI melanoma) [µM],GI50 (MALME-3M melanoma) [µM],TGI (MALME-3M melanoma) [µM],GI50 (NCI-H226 lung) [µM],TGI (NCI-H226 lung) [µM],GI50 (NCI-H522 lung) [µM],TGI (NCI-H522 lung) [µM],GI50 (RPMI-8226 leukemia) [µM],TGI (RPMI-8226 leukemia) [µM],GI50 (SNB-19 CNS) [µM],TGI (SNB-19 CNS) [µM],GI50 (TK-10 renal) [µM],TGI (TK-10 renal) [µM]
CCOC(=O)Nc1nc2ccc(OCC)cc2s1,5.12,> 100,7.56,> 100,3.31,> 100,41.7,> 100,> 100,> 100,> 100,> 100,6.49,> 100,27.1,> 100,> 100,> 100,> 100,> 100
CCCCCCCCSC1=CC(=O)c2nc3ccccc3c3ccnc1c23,38.4,> 100,16.3,> 100,> 100,> 100,> 100,> 100,83.3,> 100,0.544,96.8,62.8,> 100,60.2,> 100,> 100,> 100,> 100,> 100
O=C(O)c1cc(C(=O)O)cc(N2C(=O)c3ccccc3C2=O)c1,–,> 100,–,> 100,–,> 100,–,> 100,–,> 100,–,> 100,–,> 100,–,> 100,–,> 100,–,> 100
Cc1cnc(NC(=O)C(Cc2ccccc2)NC(=O)c2ccccc2)s1 (stereo not given),2.63,8.9,21.2,51.5,3.82,14.7,6.25,19.3,24.2,> 100,2.04,7.05,1.53,21.8,2.7,9.04,19,48.6,10.2,30.7
CC1(C)OC(=O)C(=Cc2ccc(O)cc2)C(=O)O1,–,> 100,–,> 100,–,> 100,–,> 100,–,> 100,–,> 100,–,> 100,–,> 100,–,> 100,–,> 100
O=C1C2=C(SCCS2)C(=O)c2ccccc21,–,3.08,–,6.77,–,3.18,–,2.27,–,3.2,–,3.57,–,3.17,–,5.35,–,2.87,–,3.24
CC[C@@]12CCCN3CC[C@]4(c5cccc(OC)c5N(C(C)=O)[C@@H]4CC1)[C@H]32,–,> 100,–,44.6,–,> 100,–,> 100,–,> 100,–,> 100,–,> 100,–,> 100,–,> 100,–,> 100
